From patent US20260242419A1, “A CYCLIC PEPTIDE FOR TRAPPING INTERLEUKIN-1 BETA” (Merck Sharp & Dohme LLC, priority 2023, published 2026)
Starred links: 1 amine or outer side, 2 acyl side, 3 side chain; linkers in the order of their positions; H or OH if unused. Non-standard residues stand in square brackets, D forms with d. Residues, ends and D or L forms follow the SMILES beside them. *: point of attachment. dPro(4R-(4-pyridylmethyl)) = O=C(O)[C@H]1C[C@@H](Cc2ccncc2)CN1; Trp(βS-Me,4-F) = C[C@@H](c1c[nH]c2cccc(F)c12)[C@H](N)C(=O)O; Bip(4'-COOH) = N[C@@H](Cc1ccc(-c2ccc(C(=O)O)cc2)cc1)C(=O)O; dPro(4R-Bzl(4-F)) = O=C(O)[C@H]1C[C@@H](Cc2ccc(F)cc2)CN1; X14 = O=C([C@H]1[C@@H](Cc2ccccc2)CCN1[*:1])[*:2]; Ala(pyrimidin-5-yl) = N[C@@H](Cc1cncnc1)C(=O)O; Phe(4-COOH) = N[C@@H](Cc1ccc(C(=O)O)cc1)C(=O)O; Bip = N[C@@H](Cc1ccc(-c2ccccc2)cc1)C(=O)O; Pro(cis-4-F) = O=C(O)[C@@H]1C[C@H](F)CN1; X47 = O=C([C@H](Cc1cccnn1)N[*:1])[*:2]; Cyclohexanecarbonyl = O=C(C1CCCCC1)*; AEF = NCCOc1ccc(C[C@H](N)C(=O)O)cc1; Dap(CONH2) = NC(=O)NC[C@H](N)C(=O)O; cisHyp = O=C(O)[C@@H]1C[C@H](O)CN1; d(αMeD) = C[C@@](N)(CC(=O)O)C(=O)O; 4Pal = N[C@@H](Cc1ccncc1)C(=O)O; aThr = C[C@H](O)[C@H](N)C(=O)O; αMeK = C[C@](N)(CCCCN)C(=O)O; dDap = NC[C@@H](N)C(=O)O; Dab = NCC[C@H](N)C(=O)O; Aib = CC(C)(N)C(=O)O

Target: T1, IL-1β (Homo sapiens, UniProt P01584)
T1 construct: purchased BioLegend 579404
T1 sequence (P01584 117-269): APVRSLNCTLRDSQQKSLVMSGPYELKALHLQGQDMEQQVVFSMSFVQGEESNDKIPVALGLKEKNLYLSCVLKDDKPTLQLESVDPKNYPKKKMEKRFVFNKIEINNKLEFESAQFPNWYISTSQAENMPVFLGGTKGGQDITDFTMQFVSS
Experiment: IL-6 assay in MRC5 cells: inhibition of IL-1β induced IL-6 secretion (AlphaLISA)
Format: cell-based
Details: inhibition of IL-1β induced IL-6 secretion in MRC5 cells; compound pre-incubated 1 hour with recombinant human IL-1β; read-out: MRC5 IC50
Method in brief: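 Compound was pre-incubated 1 h at ambient temperature with recombinant human IL-1β at 2λ EC80 before adding human lung fibroblast MRC5 cells (3000/well) in EMEM with 0.025% BSA. After overnight culture at 37 °C, 5% CO2, secreted IL-6 in conditioned medium was measured by AlphaLISA; IC50 from 4-parameter logistic fits.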

Row | IC50 [pM] | Compound
1 | 17 | C[C@@H](c1c[nH]c2cccc(F)c12)[C@@H]1NC(=O)[C@@H]2C[C@H](F)CN2C(=O)CNC(=O)[C@H](Cc2ccc(C(=O)O)cc2)NC(=O)[C@H](Cc2ccncc2)NC(=O)[C@H](Cc2ccc(OCCNC(=O)C3CCCCC3)cc2)NC(=O)[C@H]2C[C@@H](Cc3ccncc3)CN2C(=O)CNC(=O)[C@H](CCN)NC(=O)[C@H](CCC(N)=O)NC(=O)[C@H](Cc2cncnc2)NC(=O)C(C)(C)NC(=O)[C@H](Cc2c[nH]c3ccccc23)NC(=O)[C@H](CO)NC(=O)C(C)(C)NC1=O [Example 301] (cyclo([AEF](Cyclohexanecarbonyl)[4Pal][Phe(4-COOH)]G[Pro(cis-4-F)][Trp(βS-Me,4-F)][Aib]SW[Aib][Ala(pyrimidin-5-yl)]Q[Dab]G[dPro(4R-(4-pyridylmethyl))]))
2 | 10 | C[C@H](O)[C@@H]1NC(=O)[C@@](C)(CC(=O)O)NC(=O)[C@H](Cc2c[nH]c3ccccc23)NC(=O)[C@H](CO)NC(=O)C(C)(C)NC(=O)[C@H]([C@@H](C)c2c[nH]c3cccc(F)c23)NC(=O)[C@@H]2C[C@H](F)CN2C(=O)CNC(=O)[C@H](Cc2ccc(C(=O)O)cc2)NC(=O)[C@H](Cc2ccncc2)NC(=O)[C@H](Cc2ccc(-c3ccccc3)cc2)NC(=O)[C@H]2C[C@@H](Cc3ccncc3)CN2C(=O)CNC(=O)[C@H](CCN)NC(=O)[C@H](CCC(N)=O)NC1=O [Example 293] (cyclo([Bip][4Pal][Phe(4-COOH)]G[Pro(cis-4-F)][Trp(βS-Me,4-F)][Aib]SW[d(αMeD)][aThr]Q[Dab]G[dPro(4R-(4-pyridylmethyl))]))
3 | 31 | C[C@@H](c1c[nH]c2cccc(F)c12)[C@@H]1NC(=O)[C@@H]2C[C@H](F)CN2C(=O)CNC(=O)[C@H](Cc2ccc(C(=O)O)cc2)NC(=O)[C@H](Cc2ccncc2)NC(=O)[C@H](Cc2ccc(-c3ccccc3)cc2)NC(=O)[C@H]2C[C@@H](Cc3ccncc3)CN2C(=O)CNC(=O)[C@H](CNC(N)=O)NC(=O)[C@H](CCC(N)=O)NC(=O)[C@@H](CN)NC(=O)[C@@](C)(CC(=O)O)NC(=O)[C@H](Cc2c[nH]c3ccccc23)NC(=O)[C@H](CO)NC(=O)C(C)(C)NC1=O [Example 246] (cyclo([Bip][4Pal][Phe(4-COOH)]G[Pro(cis-4-F)][Trp(βS-Me,4-F)][Aib]SW[d(αMeD)][dDap]Q[Dap(CONH2)]G[dPro(4R-(4-pyridylmethyl))]))

Same assay, conditions: inhibition of IL-1β induced IL-6 secretion in MRC5 cells; read-out: MRC5 IC50

Row | IC50 [pM] | Compound
4 | 22 | C[C@@H](O)[C@@H]1NC(=O)C(C)(C)NC(=O)[C@H]([C@@H](C)c2c[nH]c3cccc(F)c23)NC(=O)[C@@H]2C[C@H](F)CN2C(=O)CNC(=O)[C@H](Cc2ccc(C(=O)O)cc2)NC(=O)[C@H](Cc2ccncc2)NC(=O)[C@H](Cc2ccc(-c3ccc(C(=O)O)cc3)cc2)NC(=O)[C@H]2C[C@@H](Cc3ccc(F)cc3)CN2C(=O)CNC(=O)[C@H](CCN)NC(=O)[C@H](CCC(N)=O)NC(=O)[C@H](Cc2cncnc2)NC(=O)[C@](C)(CCCCN)NC(=O)[C@H](Cc2c[nH]c3ccccc23)NC1=O [Example 137] (cyclo([Bip(4'-COOH)][4Pal][Phe(4-COOH)]G[Pro(cis-4-F)][Trp(βS-Me,4-F)][Aib]TW[αMeK][Ala(pyrimidin-5-yl)]Q[Dab]G[dPro(4R-Bzl(4-F))]))
5 | 11 | C[C@@H](c1c[nH]c2cccc(F)c12)[C@@H]1NC(=O)[C@@H]2C[C@H](F)CN2C(=O)CNC(=O)[C@H](Cc2ccc(C(=O)O)cc2)NC(=O)[C@H](Cc2ccncc2)NC(=O)[C@H](Cc2ccc(-c3ccc(C(=O)O)cc3)cc2)NC(=O)[C@H]2C[C@@H](Cc3ccncc3)CN2C(=O)CNC(=O)[C@H](CCN)NC(=O)[C@H](CCC(N)=O)NC(=O)[C@H](Cc2cncnc2)NC(=O)[C@@](C)(CC(=O)O)NC(=O)[C@H](Cc2c[nH]c3ccccc23)NC(=O)[C@H](CO)NC(=O)C(C)(C)NC1=O [Example 154] (cyclo([Bip(4'-COOH)][4Pal][Phe(4-COOH)]G[Pro(cis-4-F)][Trp(βS-Me,4-F)][Aib]SW[d(αMeD)][Ala(pyrimidin-5-yl)]Q[Dab]G[dPro(4R-(4-pyridylmethyl))]))
6 | 21 | C[C@@H](c1c[nH]c2cccc(F)c12)[C@@H]1NC(=O)[C@@H]2C[C@H](F)CN2C(=O)CNC(=O)[C@H](Cc2ccc(C(=O)O)cc2)NC(=O)[C@H](Cc2ccncc2)NC(=O)[C@H](Cc2ccc(-c3ccc(C(=O)O)cc3)cc2)NC(=O)[C@H]2C[C@@H](Cc3ccc(F)cc3)CN2C(=O)CNC(=O)[C@H](CCN)NC(=O)[C@H](CCC(N)=O)NC(=O)[C@H](Cc2cccnn2)NC(=O)C(C)(C)NC(=O)[C@H](Cc2c[nH]c3ccccc23)NC(=O)[C@H](CCC(=O)O)NC(=O)C(C)(C)NC1=O [Example 102] (cyclo([Bip(4'-COOH)][4Pal][Phe(4-COOH)]G[Pro(cis-4-F)][Trp(βS-Me,4-F)][Aib]EW[Aib][X47]Q[Dab]G[dPro(4R-Bzl(4-F))]))
7 | 59 | C[C@@H](c1c[nH]c2cccc(F)c12)[C@@H]1NC(=O)[C@@H]2C[C@H](F)CN2C(=O)CNC(=O)[C@H](Cc2ccc(C(=O)O)cc2)NC(=O)[C@H](Cc2ccncc2)NC(=O)[C@H](Cc2ccc(-c3ccc(C(=O)O)cc3)cc2)NC(=O)[C@H]2C[C@@H](Cc3ccc(F)cc3)CN2C(=O)CNC(=O)[C@H](CCCNC(=N)N)NC(=O)[C@H](CCC(N)=O)NC(=O)[C@H](Cc2ccncc2)NC(=O)C(C)(C)NC(=O)[C@H](Cc2c[nH]c3ccccc23)NC(=O)[C@H](CCC(=O)O)NC(=O)C(C)(C)NC1=O [Example 76] (cyclo([Bip(4'-COOH)][4Pal][Phe(4-COOH)]G[Pro(cis-4-F)][Trp(βS-Me,4-F)][Aib]EW[Aib][4Pal]QRG[dPro(4R-Bzl(4-F))]))
8 | 36 | CC(=O)NCCOc1ccc(C[C@@H]2NC(=O)[C@H]3[C@@H](Cc4ccccc4)CCN3C(=O)CNC(=O)[C@H](CCN)NC(=O)[C@H](CCC(N)=O)NC(=O)[C@H](Cc3cncnc3)NC(=O)C(C)(C)NC(=O)[C@H](Cc3c[nH]c4ccccc34)NC(=O)[C@H](CCC(=O)O)NC(=O)C(C)(C)NC(=O)[C@H]([C@@H](C)c3c[nH]c4cccc(F)c34)NC(=O)[C@@H]3C[C@H](F)CN3C(=O)CNC(=O)[C@H](Cc3ccc(C(=O)O)cc3)NC(=O)[C@H](Cc3ccncc3)NC2=O)cc1 [Example 78] (cyclo([AEF](Ac)[4Pal][Phe(4-COOH)]G[Pro(cis-4-F)][Trp(βS-Me,4-F)][Aib]EW[Aib][Ala(pyrimidin-5-yl)]Q[Dab]G[X14]))
9 | 14 | C[C@@H](c1c[nH]c2cccc(F)c12)[C@@H]1NC(=O)[C@@H]2C[C@H](O)CN2C(=O)CNC(=O)[C@H](Cc2ccc(C(=O)O)cc2)NC(=O)[C@H](Cc2ccncc2)NC(=O)[C@H](Cc2ccc(-c3ccc(C(=O)O)cc3)cc2)NC(=O)[C@H]2C[C@@H](Cc3ccncc3)CN2C(=O)CNC(=O)[C@H](CCN)NC(=O)[C@H](CCC(N)=O)NC(=O)[C@H](Cc2cncnc2)NC(=O)C(C)(C)NC(=O)[C@H](Cc2c[nH]c3ccccc23)NC(=O)[C@H](CO)NC(=O)C(C)(C)NC1=O [Example 194] (cyclo([Bip(4'-COOH)][4Pal][Phe(4-COOH)]G[cisHyp][Trp(βS-Me,4-F)][Aib]SW[Aib][Ala(pyrimidin-5-yl)]Q[Dab]G[dPro(4R-(4-pyridylmethyl))]))
